For series [1], the target named is T1, Proteasome subunit beta type-8 (Homo sapiens, UniProt P28062).
T1 sequence (P28062 whole entry): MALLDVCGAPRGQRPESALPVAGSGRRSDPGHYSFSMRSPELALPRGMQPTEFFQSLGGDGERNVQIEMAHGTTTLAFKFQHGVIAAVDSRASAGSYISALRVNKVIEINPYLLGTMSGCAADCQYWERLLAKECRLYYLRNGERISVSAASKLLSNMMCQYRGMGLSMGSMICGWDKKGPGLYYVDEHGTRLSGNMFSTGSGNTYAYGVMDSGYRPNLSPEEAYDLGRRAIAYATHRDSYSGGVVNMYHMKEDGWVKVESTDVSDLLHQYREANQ
The experiment in a line: Inhibition of human chymotrypsin-like beta 5i subunit of iCP using suc-LLVY-AMC as flurogenic substrate for 90 mins by fluorescence-based assay.

Series [2] in a line: Glutathione reactivity of compound at pH 8.5 measured by HPLC-MS assay. It is filed as physicochemical.
Series [3] is described as follows: Glutathione reactivity of compound at pH 8 measured by HPLC-MS assay. Type of series: physicochemical.
Series [4] can be described thus: Glutathione reactivity of compound at pH 7.5 measured by HPLC-MS assay. Type of series: physicochemical.
Series [5] is described as follows: Glutathione reactivity of compound at pH 9 measured by HPLC-MS assay. It is filed as physicochemical.
The target of series [6] is T2, Proteasome subunit beta type-8 (Homo sapiens) (UniProt P28062).
T2 sequence (whole entry): T1 sequence (P28062 whole entry)
The experiment in a line: Inhibition of human chymotrypsin-like beta 5i subunit of iCP assessed as residual activity using suc-LLVY-AMC as flurogenic substrate at 100 uM for 90 mins by fluorescence-based assay.

For series [7], the target named is T3, Proteasome Macropain subunit MB1 (Homo sapiens) (UniProt P28074).
T3 sequence (whole entry): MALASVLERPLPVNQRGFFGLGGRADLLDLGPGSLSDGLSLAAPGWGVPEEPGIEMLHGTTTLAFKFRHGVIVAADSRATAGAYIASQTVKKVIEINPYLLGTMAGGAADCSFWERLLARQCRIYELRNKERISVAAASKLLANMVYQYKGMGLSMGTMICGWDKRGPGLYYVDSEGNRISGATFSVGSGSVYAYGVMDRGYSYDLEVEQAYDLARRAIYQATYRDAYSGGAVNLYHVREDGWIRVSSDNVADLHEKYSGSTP
The experiment in a line: Inhibition of beta 5 chymotrypsin-like activity (unknown origin) at 100 uM using Suc-LLVY-AMC as substrate for 90 mins by fluorescence based assay. Also on record: scale not given: the % may be the effect or the level left.

Series [8] is described as follows: Thiol reactivity of the compound assessed as TNB2-depletion at 200 uM measured upto 24 hrs by TNB2-depletion assay. Type of series: physicochemical.

Turning to `COc1ccc2sc(=S)[nH]c2c1`, the IC50 (commonly the midpoint of a concentration-inhibition curve) in series [1] is 7.2 µM.

Molecule `S=c1[nH]c2ccc(Cl)cc2o1` registered an IC50 in series [1] of 65 µM. The Drug metabolism result in series [2], in series [3], in series [4] and in series [5] was “Metabolite_Notdetected” each time.

For the molecule `O=[N+]([O-])c1ccc2nc(S)sc2c1`, the Drug metabolism entry in series [2], in series [3], in series [4] and in series [5] was “Metabolite_Notdetected” each time. In series [6], the Activity was determined as 69%.

The molecule `N#Cc1nc2cccc(Cl)c2[nH]1` had an IC50 in series [1] of 75 µM. In series [7], the Activity amounted to 82%.

Molecule `Cn1c(C#N)nc2cccc(Cl)c21` had an IC50 in series [1] of 20 µM. For the same molecule, in series [7], the Activity amounted to 89%.

For `Cn1c(=S)[nH]c2ccc(NC(=O)Cc3cccnc3)cc21`, in series [6], the Activity stood at 89%.

For `C=CC(=O)Nc1nc2ccccc2n1C`, the Activity in series [6] amounted to 83%.

The molecule `O=[N+]([O-])c1ccc2oc(=S)[nH]c2c1` had an IC50 in series [1] of 9 µM. Moreover, the Drug metabolism result in series [2], in series [3], in series [4] and in series [5] was “Metabolite_Notdetected” throughout.

`COc1cccc2oc(=S)[nH]c12` gave an IC50 in series [1] of 81 µM.

As for `Cn1c(C#N)nc2ccccc21`, in series [6], the Activity is 99%.

For `N#Cc1nc2ccccc2[nH]1`, the Activity in series [6] was determined as 89%.

For the molecule `Sc1nc2ccccc2[nH]1` [2-MERCAPTOBENZIMIDAZOLE], the IC50 in series [1] turned out to be 114 µM. The same molecule registered an Activity in series [7] of 100%. In series [8], the Drug metabolism result was “Metabolite_Notdetected”.

Consider `S=c1[nH]c2cccc(-c3ccccc3)c2s1`, for which the Activity in series [6] worked out at 54%.

Take `O=C(CCl)Nc1nc2ccccc2s1`: in series [6], the Activity was 73%.

As for `O=C(Nc1ccc2[nH]c(=S)sc2c1)[C@H]1CCCN1`, the IC50 in series [1] came to 95 µM.

`Nc1ccc2[nH]c(=S)oc2c1`: the IC50 in series [1] was determined as 27 µM.

`S=c1[nH]c2c(Cl)cccc2s1`: half-maximal inhibition in series [1] (IC50) was put at 43 µM. Further, the Drug metabolism result in series [2], in series [3], in series [4] and in series [5] was “Metabolite_Notdetected” in each case.

Molecule `Sc1nc2cc(Cl)ccc2[nH]1` yielded an IC50 in series [1] of 62 µM. The Drug metabolism entry in series [2], in series [3], in series [4], in series [5] and in series [8] was “Metabolite_Notdetected” in each case. This molecule came in with an Activity in series [7] of 98%.

With `Cn1c(C#N)nc2ccc(Cl)cc21`, in series [6], the Activity came to 50%.

Molecule `S=c1[nH]c2c(Cl)cccc2o1` yielded an IC50 in series [1] of 36 µM.

In the case of `N#Cc1nc2c(Cl)cccc2s1`, the IC50 in series [1] was 85 µM.

For `Cn1c(=S)[nH]c2cccc(NC(=O)c3ccccc3)c21`, in series [6], the Activity came out at 47%.

In the case of `O=C(Nc1ccc2[nH]c(=S)oc2c1)c1ccccc1`, in series [1], the IC50 is 49 µM.

`O=C(Nc1ccc2nc(S)sc2c1)c1ccccc1` returned an IC50 in series [1] of 7.1 µM.

For the molecule `Cc1ccc2oc(=S)[nH]c2c1`, the Activity in series [6] was 99%.

As to `Cn1c(=S)[nH]c2cccc(N)c21`, in series [6], the Activity was 63%.

As to `CCOc1ccc2nc(S)sc2c1`, the IC50 in series [1] was 9 µM.

In series [1], `Cn1c(=S)[nH]c2ccc(NC(=O)[C@H]3CCCN3)cc21` returned an IC50 of 109 µM.

Consider `O=C(Cc1cccnc1)Nc1ccc2[nH]c(=S)sc2c1`, for which, in series [1], the IC50 is 15 µM.

On to `Nc1ccc2nc(S)sc2c1`, for which the Activity in series [6] stood at 80%.

Consider `N#Cc1cccc(-c2cccc3[nH]c(=S)sc23)c1`, for which the Activity in series [6] was 70%.

Turning to `S=c1[nH]c2cccc(Br)c2[nH]1`, the Activity in series [6] was 87%.

For `Cn1c(=S)[nH]c2cccc(NC(=O)Cc3cccnc3)c21`, in series [6], the Activity was determined as 94%.

Consider `O=C(Cc1cccnc1)Nc1cccc2[nH]c(=S)oc12`, for which, in series [1], the IC50 was 156 µM.

In turn, `CC(=O)Nc1ccc2[nH]c(=S)n(C)c2c1` gave an IC50 in series [1] of 149 µM.

`Sc1nc2ccccc2s1` [2-MERCAPTOBENZOTHIAZOLE] gave a concentration for half-maximal inhibition (IC50) in series [1] of 13 µM. In addition, the Activity in series [7] stood at 85%. Moreover, the Drug metabolism entry in series [8] was “Metabolite_Detected”.

Regarding `O=C(Cc1cccnc1)Nc1ccc2[nH]c(=S)oc2c1`, the Activity in series [6] turned out to be 50%.

With `N#Cc1nc2ccccc2o1`, the IC50 in series [1] is 83 µM. In series [7], this molecule returned an Activity of 82%.

For `Cn1c(S)nc2ccc(Cl)cc21`, the IC50 in series [1] was 4.2 µM. The Drug metabolism entry is given as “Metabolite_Notdetected” in series [2]; “Metabolite_Notdetected” in series [3]; “Metabolite_Notdetected” in series [4]; “Metabolite_Notdetected” in series [5]; “Metabolite_Detected” in series [8]. Besides, in series [7], the Activity amounted to 94%.

For `N#Cc1nc2ccccc2s1`, the Activity in series [6] stood at 61%.

On to `Cc1ccc2[nH]c(=S)oc2c1`, for which, in series [1], the midpoint of inhibition, the IC50, lay at 30 µM. In addition, the Activity in series [7] turned out to be 92%. Also, the Drug metabolism entry in series [8] is “Metabolite_Detected”.

Take `Sc1nc2ccccc2o1`: 17 µM corresponded to half-maximal inhibition in series [1] (IC50). Moreover, the Activity in series [7] was found to be 116%. Moreover, the Drug metabolism entry in series [8] is given as “Metabolite_Detected”.

As for `CC(=O)Nc1ccc2[nH]c(=S)oc2c1`, in series [6], the Activity was 63%.

Take `C=CS(=O)(=O)c1nc2ccccc2s1`: the Activity in series [6] was 40%.

Molecule `CC(=O)Nc1ccc2[nH]c(=S)sc2c1` had an IC50 in series [1] of 130 µM.

Take `Oc1cccc2oc(S)nc12`: it took 4.1 µM to reach half-maximal inhibition in series [1] (IC50). The Activity in series [7] is 87%. Also, the Drug metabolism result in series [8] is “Metabolite_Detected”.

On to `CS(=O)(=O)c1nc2ccccc2s1`, for which the Activity in series [6] is 88%.

For the molecule `Cn1c(=S)[nH]c2ccc(N)cc21`, the Activity in series [6] amounted to 67%.

Regarding `Sc1nc2cc(Cl)ccc2s1`, the IC50 in series [1] came to 32 µM.

Take `O=C(CCc1cccnc1)Nc1ccc2[nH]c(=S)sc2c1`: inhibition in series [1] was half-maximal at 26 µM (IC50).

`C=CC(=O)Nc1nc2ccccc2s1`: the Activity in series [6] is 44%.

Turning to `Cn1c(=S)[nH]c2ccc(NC(=O)CCc3cccnc3)cc21`, the Activity in series [6] came out at 72%.

In series [1], `Sc1nc2cc(Cl)ccc2o1` showed an IC50 of 96 µM. Also, the Drug metabolism entry in series [2], in series [3], in series [4] and in series [5] was “Metabolite_Notdetected” in each case.

For the molecule `Cc1ccc2sc(=S)[nH]c2c1`, the Activity in series [6] came out at 56%.

The molecule `COC(=O)c1ccc2[nH]c(=S)oc2c1` returned an IC50 in series [1] of 3 µM.

For the molecule `N#Cc1nc2ccc(Cl)cc2[nH]1`, in series [1], the midpoint of inhibition, the IC50, lay at 28 µM. Besides, the Activity in series [7] was determined as 71%.

Regarding `O=C(CCc1cccnc1)Nc1ccc2[nH]c(=S)oc2c1`, in series [6], the Activity was determined as 56%.

For the molecule `N#Cc1nc2cccc(Cl)c2s1`, the IC50 in series [1] worked out at 18 µM. Moreover, in series [7], the Activity worked out at 72%.

Consider `O=C(Nc1ccc2[nH]c(=S)oc2c1)[C@H]1CCCN1`, for which the Activity in series [6] was determined as 65%.

Take `S=c1[nH]c2cccc(Cl)c2[nH]1`: the IC50 in series [1] was 60 µM.

On to `COc1ccc2oc(=S)[nH]c2c1`, for which the Activity in series [6] came out at 59%.

`Cn1c(=S)[nH]c2cccc(NC(=O)CCc3cccnc3)c21`: in series [6], the Activity was determined as 92%.

In series [1], `N#Cc1nc2cc(Cl)ccc2o1` had an IC50 of 67 µM. Also, in series [7], the Activity came out at 101%.

Consider `Cn1c(=S)[nH]c2ccc([N+](=O)[O-])cc21`, for which, in series [6], the Activity is 52%.

The molecule `Cn1c(S)nc2ccccc21` had an IC50 in series [1] of 94 µM. In series [7], this molecule returned an Activity of 91%. Besides, in series [8], the Drug metabolism entry is reported as “Metabolite_Notdetected”.

As to `COc1ccc2[nH]c(=S)sc2c1`, inhibition in series [1] was half-maximal at 13 µM (IC50).

In series [1], `O=C(Nc1cccc2[nH]c(=S)oc12)c1ccccc1` showed an IC50 of 129 µM.

Take `O=[N+]([O-])c1ccc2sc(=S)[nH]c2c1`: the Drug metabolism result in series [2], in series [3], in series [4] and in series [5] was “Metabolite_Notdetected” in each case. Moreover, in series [6], the Activity was 58%.

Consider `N#Cc1nc2ccc(Cl)cc2s1`, for which the Activity in series [6] worked out at 58%.

`Nc1cccc2[nH]c(=S)oc12` registered an IC50 in series [1] of 79 µM.

In series [1], `S=c1[nH]c2cccc(Br)c2s1` came in with an IC50 of 11 µM. The molecule further registered an Activity in series [7] of 84%. Also, the Drug metabolism entry in series [8] is “Metabolite_Detected”.

The values are drawn from ChEMBL document CHEMBL4819103, “Discovery of selective fragment-sized immunoproteasome inhibitors” (Eur J Med Chem, 2021).
